# Measurements from patent US20170303554A1, “METHOD OF SANITIZING EDIBLE SEEDS, PARTICULARLY MUCILAGE PRODUCING SEEDS” (AGRI-NEO INC., priority 2014, published 2017).
# What was measured:
# [1] = test system: Total count Aerobic bacteria; experiment: Total aerobic count on seeds, grains and spices sprayed with sanitizing solutions (Example 1); type: cell-based; conditions: for bactericidal effect, conclusion in words: 40 L per 1 tonne
# Protocol: (§1) Seeds were mechanically cleaned and spread in stainless steel containers. Each 100 grams seeds were sprayed with 4 ml total solutions descried above via conventional trigger vaporizer. This solution is equivalent to 40 L disinfecting solution total sprayed on 1-tonne seeds. Seeds, grains and spices were selected to represent all families and types of seeds, grains and spices. Another criterium was to select seeds and grains contaminated with a high count of total aerobic bacteria, yeast, mold, E. coli, Salmonella sp. and other pathogenic microorganisms.
# (§2) Seeds, grains and spices treated were: • Whole dried pea, • Split pea dried, • Pea fiber, • Vanilla, • Chia, • Sprouted flax and chia, • Flax, • Hemp, and • Black pepper seeds
# Y&M (yeast and mold) = experiment: Yeast and mold (Y&M) count on sprayed seeds, grains and spices (Example 1); type: cell-based; conditions: 40 L/tonne; for Y&M, Av: average; for Y&M, n1: replicate n1; for Y&M, n2: replicate n2
# Protocol: as §1, §2
compound,measurement,setting,value
CC(=O)OO [Peracetic acid],"bactericidal effect, conclusion in words",[1]; black pepper,strong bactericidal agent
same,"bactericidal effect, conclusion in words",[1]; hemp,strong bactericidal agent
same,"bactericidal effect, conclusion in words",[1]; pea fiber,strong bactericidal agent
same,"bactericidal effect, conclusion in words",[1]; split pea,strong bactericidal agent
same,"bactericidal effect, conclusion in words",[1]; vanilla,strong bactericidal agent
same,"bactericidal effect, conclusion in words",[1]; whole dried pea,strong bactericidal agent
"CCO [2- Alcohol - ethanol, ethanol]","effect when combined with peracetic acid formulations (synergy), in words",[1]; black pepper,synergistic with peracetic acid
same,"bactericidal effect, conclusion in words",[1]; black pepper,not a strong bactericidal agent
same,"effect when combined with peracetic acid formulations (synergy), in words",[1]; hemp,synergistic with peracetic acid
same,"bactericidal effect, conclusion in words",[1]; hemp,not a strong bactericidal agent
same,"effect when combined with peracetic acid formulations (synergy), in words",[1]; pea fiber,synergistic with peracetic acid
same,"bactericidal effect, conclusion in words",[1]; pea fiber,not a strong bactericidal agent
same,"effect when combined with peracetic acid formulations (synergy), in words",[1]; split pea,synergistic with peracetic acid
same,"bactericidal effect, conclusion in words",[1]; split pea,not a strong bactericidal agent
same,"bactericidal effect, conclusion in words",[1]; sprouted flax and chia,bactericidal agent but not very strong
same,"effect when combined with peracetic acid formulations (synergy), in words",[1]; vanilla,synergistic with peracetic acid
same,"bactericidal effect, conclusion in words",[1]; vanilla,not a strong bactericidal agent
same,"effect when combined with peracetic acid formulations (synergy), in words",[1]; whole dried pea,synergistic with peracetic acid
same,"bactericidal effect, conclusion in words",[1]; whole dried pea,not a strong bactericidal agent
same,"Y&M, Av",Y&M (yeast and mold); pea fiber,Y&M not detected
same,"Y&M, n1",Y&M (yeast and mold); pea fiber,"n1, n2 not detected"
same,"Y&M, n2",Y&M (yeast and mold); pea fiber,"n1, n2 not detected"
same,"Y&M, Av",Y&M (yeast and mold); whole dried pea,Y&M not detected
same,"Y&M, n1",Y&M (yeast and mold); whole dried pea,"n1, n2 not detected"
same,"Y&M, n2",Y&M (yeast and mold); whole dried pea,"n1, n2 not detected"
same,"Y&M, Av",Y&M (yeast and mold); whole split pea,Y&M not detected
same,"Y&M, n1",Y&M (yeast and mold); whole split pea,"n1, n2 not detected"
same,"Y&M, n2",Y&M (yeast and mold); whole split pea,"n1, n2 not detected"
